# Earlier results, collected in patent publication US20140328945A1, “METHOD FOR STABILIZING AN ELECTROCHEMICALLY GENERATED SANITIZING SOLUTION HAVING A PREDETERMINED LEVEL OF FREE AVAILABLE CHLORINE AND pH” (Aquaxo, Inc., priority 2013, published 2014).
# Assays:
# [1] = test system: E. coli
# [2] = test system: S. clysvnteriae
# [3] = test system: A. aerogenes
# [4] = test system: S. typhosa
# [5] = test system: Escherichia coli; conditions: E. coli exposed to Hypochlorous Acid
# [6] = test system: E. coli; conditions: 2.6 ppm, dilute bacterial suspensions, in about 5 minutes
smiles,measurement,setting,value
OCl [Hypochlorous Acid],concentration required for 100% kill in 5 minutes,[1],0.03 ppm
same,concentration required for 100% kill in 5 minutes,[2],0.05 ppm
same,concentration required for 100% kill in 5 minutes,[3],0.08 ppm
same,concentration required for 100% kill in 5 minutes,[4],0.06 ppm
same,time to lose viability,[5],less than 100 ms
same,growth inhibition,[6],100%
